Test results reported in ChEMBL document CHEMBL4138123, “Design, synthesis and biological evaluation of novel pyrazolochalcones as potential modulators of PI3K/Akt/mTOR pathway and inducers of apoptosis in breast cancer cells” (Eur J Med Chem, 2017).

What was measured:
Type in all cases: functional
SNB-19 = assay: Cytotoxicity against human SNB19 cells assessed as growth inhibition after 48 hrs by sulforhodamine B assay; conditions: SNB-19, 48 h
U-251 = assay: Cytotoxicity against human U251 cells assessed as growth inhibition after 48 hrs by sulforhodamine B assay; conditions: U-251, 48 h
786-0 = assay: Cytotoxicity against human 786-0 cells assessed as growth inhibition after 48 hrs by sulforhodamine B assay; conditions: 786-0, 48 h
UO-31 = assay: Cytotoxicity against human UO31 cells assessed as growth inhibition after 48 hrs by sulforhodamine B assay; conditions: UO-31, 48 h
BT-549 [1] = assay: Cytotoxicity against human BT549 cells assessed as growth inhibition after 48 hrs by sulforhodamine B assay; conditions: BT-549, 48 h
CCRF-CEM = assay: Cytotoxicity against human CCRF-CEM cells assessed as cell growth at 0.01 uM after 48 hrs by sulforhodamine B assay relative to control; conditions: read-out: Activity
SK-OV-3 = assay: Cytotoxicity against human SKOV3 cells assessed as cell growth at 0.01 uM after 48 hrs by sulforhodamine B assay relative to control; conditions: SK-OV-3, 48 h, read-out: Activity
IGROV-1 [2] = assay: Cytotoxicity against human IGROV1 cells assessed as cell growth at 0.01 uM after 48 hrs by sulforhodamine B assay relative to control; conditions: IGROV-1, 48 h, read-out: Activity
HCC 2998 = assay: Cytotoxicity against human HCC2998 cells assessed as cell growth at 0.01 uM after 48 hrs by sulforhodamine B assay relative to control; conditions: HCC 2998, 48 h, read-out: Activity
NCI-H460 = assay: Cytotoxicity against human NCI-H460 cells assessed as cell growth at 0.01 uM after 48 hrs by sulforhodamine B assay relative to control; conditions: NCI-H460, 48 h, read-out: Activity
SR = assay: Cytotoxicity against human SR cells assessed as cell growth at 0.01 uM after 48 hrs by sulforhodamine B assay relative to control; conditions: read-out: Activity
BT-549 [3] = assay: Cytotoxicity against human BT549 cells assessed as cell growth at 0.01 uM after 48 hrs by sulforhodamine B assay relative to control; conditions: BT-549, 48 h, read-out: Activity
K562 [4] = assay: Cytotoxicity against human K562 cells assessed as cell growth at 0.1 uM after 48 hrs by sulforhodamine B assay relative to control; conditions: K562, 48 h, read-out: Activity
A549 = assay: Cytotoxicity against human A549/ATCC cells assessed as cell growth at 0.1 uM after 48 hrs by sulforhodamine B assay relative to control; conditions: A549, 48 h, read-out: Activity
NCI-H23 [5] = assay: Cytotoxicity against human NCI-H23 cells assessed as cell growth at 0.1 uM after 48 hrs by sulforhodamine B assay relative to control; conditions: NCI-H23, 48 h, read-out: Activity
SW-620 = assay: Cytotoxicity against human SW620 cells assessed as cell growth at 0.1 uM after 48 hrs by sulforhodamine B assay relative to control; conditions: SW-620, 48 h, read-out: Activity
SF-268 = assay: Cytotoxicity against human SF268 cells assessed as cell growth at 0.1 uM after 48 hrs by sulforhodamine B assay relative to control; conditions: SF-268, 48 h, read-out: Activity
UACC-62 = assay: Cytotoxicity against human UACC62 cells assessed as cell growth at 0.1 uM after 48 hrs by sulforhodamine B assay relative to control; conditions: UACC-62, 48 h, read-out: Activity
IGROV-1 [6] = assay: Cytotoxicity against human IGROV1 cells assessed as cell growth at 0.1 uM after 48 hrs by sulforhodamine B assay relative to control; conditions: IGROV-1, 48 h, read-out: Activity
OVCAR-5 = assay: Cytotoxicity against human OVCAR5 cells assessed as cell growth at 0.1 uM after 48 hrs by sulforhodamine B assay relative to control; conditions: OVCAR-5, 48 h, read-out: Activity
PC-3 = assay: Cytotoxicity against human PC3 cells assessed as cell growth at 0.1 uM after 48 hrs by sulforhodamine B assay relative to control; conditions: PC-3, 48 h, read-out: Activity
RPMI-8226 [7] = assay: Cytotoxicity against human RPMI8226 cells assessed as cell growth at 1 uM after 48 hrs by sulforhodamine B assay relative to control; conditions: RPMI-8226, 48 h, read-out: Activity
NCI-H23 [8] = assay: Cytotoxicity against human NCI-H23 cells assessed as cell growth at 1 uM after 48 hrs by sulforhodamine B assay relative to control; conditions: NCI-H23, 48 h, read-out: Activity
COLO 205 = assay: Cytotoxicity against human COLO205 cells assessed as cell growth at 1 uM after 48 hrs by sulforhodamine B assay relative to control; conditions: COLO 205, 48 h, read-out: Activity
IGROV-1 [9] = assay: Cytotoxicity against human IGROV1 cells assessed as cell growth at 1 uM after 48 hrs by sulforhodamine B assay relative to control; conditions: IGROV-1, 48 h, read-out: Activity
OVCAR-8 = assay: Cytotoxicity against human OVCAR8 cells assessed as cell growth at 1 uM after 48 hrs by sulforhodamine B assay relative to control; conditions: OVCAR-8, 48 h, read-out: Activity
TK-10 = assay: Cytotoxicity against human TK10 cells assessed as cell growth at 1 uM after 48 hrs by sulforhodamine B assay relative to control; conditions: TK-10, 48 h, read-out: Activity
RPMI-8226 [10] = assay: Cytotoxicity against human RPMI8226 cells assessed as cell growth at 10 uM after 48 hrs by sulforhodamine B assay relative to control; conditions: RPMI-8226, 48 h, read-out: Activity
IGROV-1 [11] = assay: Cytotoxicity against human IGROV1 cells assessed as cell growth at 10 uM after 48 hrs by sulforhodamine B assay relative to control; conditions: IGROV-1, 48 h, read-out: Activity
K562 [12] = assay: Cytotoxicity against human K562 cells assessed as cell growth at 100 uM after 48 hrs by sulforhodamine B assay relative to control; conditions: K562, 48 h, read-out: Activity
HT-29 = assay: Cytotoxicity against human HT-29 cells assessed as cell growth at 100 uM after 48 hrs by sulforhodamine B assay relative to control; conditions: HT-29, 48 h, read-out: Activity
SF-539 = assay: Cytotoxicity against human SF539 cells assessed as cell growth at 100 uM after 48 hrs by sulforhodamine B assay relative to control; conditions: SF-539, 48 h, read-out: Activity
M14 = assay: Cytotoxicity against human M14 cells assessed as cell growth at 100 uM after 48 hrs by sulforhodamine B assay relative to control; conditions: M14, 48 h, read-out: Activity
SK-MEL-28 = assay: Cytotoxicity against human SK-MEL-28 cells assessed as cell growth at 100 uM after 48 hrs by sulforhodamine B assay relative to control; conditions: SK-MEL-28, 48 h, read-out: Activity
ACHN = assay: Cytotoxicity against human ACHN cells assessed as cell growth at 100 uM after 48 hrs by sulforhodamine B assay relative to control; conditions: read-out: Activity
DU-145 = assay: Cytotoxicity against human DU145 cells assessed as cell growth at 100 uM after 48 hrs by sulforhodamine B assay relative to control; conditions: DU-145, 48 h, read-out: Activity

COc1ccc(C(=O)/C=C/c2cc(-c3cc(OC)c(OC)c(OC)c3)n[nH]2)cc1
TGI (SNB-19): 3.03 µM
TGI (U-251): 2.83 µM
TGI (786-0): 4.13 µM
LC50 (UO-31): 5.59 µM
TGI (UO-31): 2.84 µM
TGI (BT-549 [1]): 3.86 µM
growth at 0.01 µM (CCRF-CEM): 99%
growth at 0.01 µM (SK-OV-3): 100%
growth at 0.01 µM (IGROV-1 [2]): 101%
growth at 0.01 µM (HCC 2998): 101%
growth at 0.01 µM (NCI-H460): 103%
growth at 0.01 µM (SR): 97%
growth at 0.01 µM (BT-549 [3]): 97%
growth at 0.1 µM (K562 [4]): 102%
growth at 0.1 µM (A549): 101%
growth at 0.1 µM (NCI-H23 [5]): 92%
growth at 0.1 µM (SW-620): 97%
growth at 0.1 µM (SF-268): 91%
growth at 0.1 µM (UACC-62): 100%
growth at 0.1 µM (IGROV-1 [6]): 102%
growth at 0.1 µM (OVCAR-5): 97%
growth at 0.1 µM (PC-3): 95%
growth at 1 µM (RPMI-8226 [7]): 27%
growth at 1 µM (NCI-H23 [8]): 95%
growth at 1 µM (COLO 205): 94%
growth at 1 µM (IGROV-1 [9]): 101%
growth at 1 µM (OVCAR-8): 86%
growth at 1 µM (TK-10): 92%
growth at 10 µM (RPMI-8226 [10]): -41%
growth at 10 µM (IGROV-1 [11]): -47%
growth at 100 µM (K562 [12]): 1%
growth at 100 µM (HT-29): -19%
growth at 100 µM (SF-539): -92%
growth at 100 µM (M14): -7%
growth at 100 µM (SK-MEL-28): -87%
growth at 100 µM (ACHN): -93%
growth at 100 µM (DU-145): -2%

COc1cc(-c2cc(/C=C/C(=O)c3ccc(N)cc3)[nH]n2)cc(OC)c1OC
GI50 (SNB-19): 2.34 µM
TGI (SNB-19): 9.98 µM
CC50 (SNB-19; read-out: LC50 (the source's name)): 34 µM
GI50 (U-251): 1.42 µM
LC50 (U-251): 5.39 µM
TGI (U-251): 2.77 µM
GI50 (786-0): 2.04 µM
LC50 (786-0): 27.6 µM
TGI (786-0): 6.49 µM
GI50 (UO-31): 1.36 µM
LC50 (UO-31): 6 µM
TGI (UO-31): 2.86 µM
GI50 (BT-549 [1]): 1.38 µM
LC50 (concentration killing 50% of cells) (BT-549 [1]): 5.76 µM
TGI (BT-549 [1]): 2.82 µM
growth at 0.01 µM (CCRF-CEM): 96%
growth at 0.01 µM (SK-OV-3): 82%
growth at 0.01 µM (IGROV-1 [2]): 107%
growth at 0.01 µM (HCC 2998): 108%
growth at 0.01 µM (NCI-H460): 102%
growth at 0.01 µM (SR): 92%
growth at 0.01 µM (BT-549 [3]): 85%
growth at 0.1 µM (K562 [4]): 94%
growth at 0.1 µM (A549): 94%
growth at 0.1 µM (NCI-H23 [5]): 105%
growth at 0.1 µM (SW-620): 95%
growth at 0.1 µM (SF-268): 106%
growth at 0.1 µM (UACC-62): 99%
growth at 0.1 µM (IGROV-1 [6]): 108%
growth at 0.1 µM (OVCAR-5): 103%
growth at 0.1 µM (PC-3): 94%
growth at 1 µM (RPMI-8226 [7]): 28%
growth at 1 µM (NCI-H23 [8]): 95%
growth at 1 µM (COLO 205): 92%
growth at 1 µM (IGROV-1 [9]): 100%
growth at 1 µM (OVCAR-8): 81%
growth at 1 µM (TK-10): 102%
growth at 10 µM (RPMI-8226 [10]): -35%
growth at 10 µM (IGROV-1 [11]): 1%
growth at 100 µM (K562 [12]): -3%
growth at 100 µM (HT-29): -49%
growth at 100 µM (SF-539): -99%
growth at 100 µM (M14): -78%
growth at 100 µM (SK-MEL-28): -83%
growth at 100 µM (ACHN): -63%
growth at 100 µM (DU-145): -98%
